Reference: US20080226718A1, “Indole and Azaindole Derivatives For the Treatment of Inflammatory and Autoimmune Diseases” (Brane Discovery S.r.l, priority 2005, published 2008)
“And” between values parts separate entries of the source, which are not always exact repeats. Identical values can stand only once.

Key:
[1] = system: encephalitogenic lymphocytes; test: Spontaneous adhesion of encephalitogenic T cells on purified ICAM-1; format: cell-based, SJL mice; conditions: Mus musculus, Lymphocyte, 1 h
Outline: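 Autoreactive T cells came from SJL mice immunized with PLP139-151. Cells were pretreated for 1 h with compound at 5-100 μM or DMSO vehicle, then tested for spontaneous adhesion to purified ICAM-1 or VCAM-1. Inhibition is given as percent of vehicle control (100%), mean ± S.D. of three-four experiments.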

[2] = system: encephalitogenic lymphocytes; test: Spontaneous adhesion of encephalitogenic T cells on purified VCAM-1; format: cell-based, SJL mice
Protocol: Spontaneous adhesion of encephalitogenic lymphocytes was measured in adhesion assays on purified ICAM-1 and VCAM-1 as previously described (Constantin G. et al., J. Immunol. 162, 1144-1149, 1999). Autoreactive T cells were obtained from SJL mice immunized with PLP139-151 as described (Piccio L. et al., J. Immunol. 168, 1940-1949, 2002). Lymphocytes were treated with test compound at concentrations between 5-100 μM for 1 h, while control/untreated cells were treated with vehicle (DMSO). Results are expressed as percentage of inhibition over control (=100%) ±S.D and are the mean of three-four experiments.
ICAM-1 and VCAM-1 are adhesion molecules from the family of immunoglobulins and control the migration of lymphocytes through the endothelium during inflammatory responses. Encephalitogenic T cells are activated lymphocytes displaying spontaneous adhesion on ICAM-1 and VCAM-1 and have increased migration capacities in inflammation sites. Spontaneous adhesion of encephalitogenic lymphocytes was measured in adhesion assays on purified ICAM-1 and VCAM-1 as described in the method.

[3] = system: encephalitogenic lymphocytes; test: Chemokine-induced adhesion of murine encephalitogenic T cells to ICAM-1; format: cell-based, SJL mice; conditions: for Chemokine-induced Adhesion in encephalitogenic lymphocytes, Mean counts ± S.D., in presence of MIP3-β stimulation: 1 μM CCL19 (MIP-3beta); for Chemokine-induced Adhesion in encephalitogenic lymphocytes, Mean counts ± S.D., in presence of MIP3-β stimulation / Adhesion in encephalitogenic lymphocytes, Mean counts ± S.D., in absence of MIP3-β stimulation: ICAM-1
Outline: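 Murine PLP139-151-reactive T cells from immunized SJL mice were pretreated with compound (5-50 μM, 37° C., 30-60 min or 1 h), then stimulated with 1 μM CCL19 (2-3 min, static) on ICAM-1-coated glass. Bound cells counted after washing and fixation; values are mean counts ±S.D of three experiments.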

[4] = system: experimental autoimmune encephalomyelitis (EAE); format: in vivo; conditions: therapeutic
Protocol: Female SJL/J mice, 6-8 weeks of age, were obtained from Harlan-Nossan Italy. Mice were immunized s.c. with 200 μg PLP139-151 in 0.1 ml emulsion consisting of equal volumes of PBS and CFA (Difco Laboratories, Detroit, Mich.) and containing 6 mg/ml of Mycobacterium tuberculosis H37Ra (Difco). To induce a severe disease, in some experiments 400 ng Pertussis toxin (PTX) was administered i.v. at days 0 and 2 (Constantin, G. et al. Eur. J. Immunol., 28, 3523-3529, 1998). Mice were scored for EAE according to the following scale: 0, no disease; 1, tail weakness; 2, paraparesis; 3, paraplegia; 4, paraplegia with forelimb weakness or paralysis; 5, moribund or dead animals (Brocke S. et al., Autoimmune disease models. Academic Press, San Diego, 1-4, 1994).
The effects of compound of Example 1 (PCT/EP2005/051908) were determined on EAE (experimental autoimmune encephalomyelitis), the animal model of multiple sclerosis (Tables 4 and 5). SJL mice were immunized with PLP139-151 peptide from cerebral proteolipid. The disease model has relapses and remission periods, as described in relapsing-remitting MS, the most frequent form of human disease accounting for 85% of all MS patients.
In the therapeutic model (Table 5), mice received 70 mg/kg of Compound of Example 1 (PCT/EP2005/051908), daily, intraperitoneally, for 11 days starting from the day of clinical onset. The treated mice also received 4 doses intravenously (i.v.) of 10 mg/kg each. Control animals received vehicle (DMSO). Control animals developed disease with a mean day of onset of 13.8±3, while treated mice developed EAE at 13.5±2 days postimmunization. Mean (±S.E.M.) maximum clinical score in control animals was 1.75±0.6.

COC(=O)c1[nH]c2cc(OC)c(OC)cc2c1-c1ccc(OC)cc1 [Example 1]
inhibition at 5 µM ([1]; [cpd] 5 μM, read-out: Inhibition of Spontaneous Adhesion in encephalitogenic lymphocytes (% of control/non-treated cells) ICAM-1): 47% | inhibition at 10 µM ([1]; [cpd] 10 μM, read-out: Inhibition of Spontaneous Adhesion in encephalitogenic lymphocytes (% of control/non-treated cells) ICAM-1 (converted)): 65% | inhibition at 25 µM ([1]; [cpd] 25 μM, read-out: Inhibition of Spontaneous Adhesion in encephalitogenic lymphocytes (% of control/non-treated cells) ICAM-1 (converted)): 70% | inhibition at 50 µM ([1]; [cpd] 50 μM, read-out: Inhibition of Spontaneous Adhesion in encephalitogenic lymphocytes (% of control/non-treated cells) ICAM-1 (converted)): 89% | inhibition at 100 µM ([1]; [cpd] 100 μM, read-out: Inhibition of Spontaneous Adhesion in encephalitogenic lymphocytes (% of control/non-treated cells) ICAM-1 (converted)): 96% | Blocking spontaneous adhesion to VCAM-1, in words [2]: very efficient | inhibition at 5 µM ([2]; Mus musculus, Lymphocyte, [cpd] 5 μM, 1 h, read-out: Inhibition of Spontaneous Adhesion in encephalitogenic lymphocytes (% of control/non-treated cells) VCAM-1): 46% | inhibition at 10 µM ([2]; Mus musculus, Lymphocyte, [cpd] 10 μM, 1 h, read-out: Inhibition of Spontaneous Adhesion in encephalitogenic lymphocytes (% of control/non-treated cells) VCAM-1 (converted)): 66% | inhibition at 25 µM ([2]; Mus musculus, Lymphocyte, [cpd] 25 μM, 1 h, read-out: Inhibition of Spontaneous Adhesion in encephalitogenic lymphocytes (% of control/non-treated cells) VCAM-1 (converted)): 74% | inhibition at 50 µM ([2]; Mus musculus, Lymphocyte, [cpd] 50 μM, 1 h, read-out: Inhibition of Spontaneous Adhesion in encephalitogenic lymphocytes (% of control/non-treated cells) VCAM-1 (converted)): 92.4% | Block of chemokine-induced autoreactive lymphocyte adhesion, in words ([3]; 5-50 μM for 1 h, 1 μM CCL19): almost complete block | Chemokine-induced Adhesion in encephalitogenic lymphocytes, Mean counts ± S.D., in presence of MIP3-β stimulation ([3]; [cpd] 5 μM): 10.3 ± 1.0 | Adhesion in encephalitogenic lymphocytes, Mean counts ± S.D., in absence of MIP3-β stimulation ([3]; [cpd] 5 μM): 1.3 ± 1.0 | Chemokine-induced Adhesion in encephalitogenic lymphocytes, Mean counts ± S.D., in presence of MIP3-β stimulation ([3]; [cpd] 10 μM): 7.0 ± 1.0 | Adhesion in encephalitogenic lymphocytes, Mean counts ± S.D., in absence of MIP3-β stimulation ([3]; [cpd] 10 μM): 1.0 ± 1.0 | Chemokine-induced Adhesion in encephalitogenic lymphocytes, Mean counts ± S.D., in presence of MIP3-β stimulation ([3]; [cpd] 25 μM): 5.3 ± 2.0 | Adhesion in encephalitogenic lymphocytes, Mean counts ± S.D., in absence of MIP3-β stimulation ([3]; [cpd] 25 μM): 0.4 ± 0.2 | Chemokine-induced Adhesion in encephalitogenic lymphocytes, Mean counts ± S.D., in presence of MIP3-β stimulation ([3]; [cpd] 50 μM): 3.2 ± 1.0 | Adhesion in encephalitogenic lymphocytes, Mean counts ± S.D., in absence of MIP3-β stimulation ([3]; [cpd] 50 μM): 0.4 ± 0.1 | Mortality ([4]; 70 mg/kg i.p. daily for 11 days from clinical onset plus 4 i.v. doses of 10 mg/kg): 0/6 | Mean maximum clinical score ([4]; 70 mg/kg i.p. daily for 11 days from clinical onset plus 4 i.v. doses of 10 mg/kg, scale 0-5, ±S.E.M.): 0.89 ± 0.23 | Inhibition of mean maximum clinical score ([4]; P<0.01): 50% | Mean day of onset ([4]; treatment started at clinical onset): 13.5±2 days postimmunization and 13.5 ± 2.0 days postimmunization
